These results are taken from patent US20160310454A1, “LIVER X RECEPTOR AGONISTS IN THE TREATMENT OF EMPHYSEMA” (priority 2013, published 2016).

Structures are written as SMILES. Entries after “also recorded” stand apart in the source; their conditions may differ.

Assay [1] deals with mice exposed to cigarette smoke for 10 days. Kind of assay: Acute 10 day cigarette smoke exposure model with LXR agonist IP. In kind it is in vivo, mouse. The method, then:
Mice were chronically exposed to smoke in a specially designed chamber (Teague Enterprise, CA). 8 weeks old mice were smoke-exposed for 5 hours a day, 5 days a week for 10 days and 5 months. The total particulate matter (TPM) within the smoking chamber was regulated so that the mice receive a TPM of 100 mg/m^3. TPM was determined by a gravimetric analysis of filter samples taken during the exposure period. Mice (C57BL/6, AKR/J strain) were smoke exposed for 10 days and 5 months and compared to room air exposed controls.
The BAL fluid was collected by perfusing the lungs with 2 ml of phosphate buffered saline (PBS). The samples were then centrifuged to pellet down the cells and re-suspended in 300 μl of PBS. To obtain the total cell count, cells were counted using a hematocytometer for which, 10 μl of the sample was utilized. To obtain the differential cell count, the slides were prepared using a cytopsin. 150 μl of sample was taken to prepare slides. These slides were stained using Hematoxylin and Eosin (H&E) and a number of regular and foamy like macrophages and lymphocytes counted under the microscope. A foamy like phenotype (Hirama et al., 2007) was identified by examining the sequential increase in macrophage size. Lipid staining was not performed.
(§1) Total RNA was extracted from specimens of lung tissue 0.3 cm^3 in size with the use of the RNeasy kit (Qiagen, Germantown, Md.) (Goldklang et al., 2012). The RNA was then further processed to obtain cDNA, which was used for Real Time (RT) PCR analysis. TaqMan gene expression assays (Applied Biosystems, Carlsbad, Calif.) were performed to assess gene-transcript levels with the use of an ABI Prism 7900HT Sequence Detection System (Applera, Foster City, Calif.) (Goldklang et al., 2012). The following primers were used to check the respective gene expression: ABCA1 (Hs01059118_m1), ABCG1 (Hs00245154_m1), MMP-9 (Mm00442991_m1), IL-1β (Mm00434227_g1), TNF-α (Mm00443260_g1) and GAPDH (4352932E) from TaqMan Gene Expression Assays, Applied Biosystems, CA. β-actin was used as a control since it is a housekeeping gene.
To determine if the mechanisms identified in vitro contributed to changes in smoke induced lung inflammation in vivo, cigarette smoke studies were performed in mice. The treatment of mice exposed to cigarette smoke in an acute 10 day model with 25 mg/kg of intraperitoneal (IP) injections of an LXR agonist daily during the last 4 days of exposure was examined. […] Treatment with the LXR agonist was capable of blocking the already established inflammation and decreased the total inflammatory cell counts (FIG. 15A.). Furthermore, the cigarette smoke induced TNFα protein expression in the BAL was abrogated in mice treated with the LXR agonist (FIG. 15B.). […] Most importantly, cigarette smoke induced MMP-9 expression and activity in the BAL were inhibited by the treatment with the LXR agonist (FIG. 15C-D.), which correlated with inhibition of inflammation and the inflammatory driven increase in TNFα.

Assay [2] concerns macrophage ABCA1-deficient mice exposed to cigarette smoke for 10 days. The assay can be described thus: Acute 10 day cigarette smoke exposure of macrophage ABCA1-deficient mice with treatment. Type of assay: in vivo, mouse. The note with it: 25 mg/kg IP, 10 days smoke exposure. The method, then: In order to determine if the mechanism identified in vitro contributed to changes in smoke induced lung inflammation in vivo, smoke studies were performed in vivo. […] Through investigation of the smoke-induced regulation of ABCA1, the present disclosure identifies unique pathways that can be targeted to prevent smoking-related emphysema and the progression of lung destruction.

For assay [3], the system named is mouse macrophages (bone marrow derived, ABCA1 fl/fl WT) treated with 5% CSE. Kind of assay: Mouse macrophages treated with 5% CSE with or without LXR agonist (RT-PCR, Western blot, zymography). Type of assay: cell-based. How it is done:
To prepare cigarette (CSE), the smoke from one cigarette (1.1 mg of nicotine, 15 mg of tar) was passed through 25 mls of phosphate buffered saline (PBS) (Mercer et al., 2004). The pH of the extracted solution was adjusted to 7.4 and then filtered (Mercer et al., 2004). CSE was added to the media at concentrations up to 5% (vol/vol) (Mercer et al., 2004).
In these experiments both mouse peritoneal and mouse bone marrow derived macrophages (BMdM) were utilized. Mouse peritoneal macrophages were isolated from peritoneal cavities of 3% thioglycolate injected mice on the 5th day from injection. To compare expression of genes in vitro and in vivo peritoneal macrophages were isolated from mice exposed to room air and cigarette smoke. For in vitro analysis cells were seeded on culture plates for 24 h and then treated with CSE. For in vivo analysis cells were collected from peritoneal cavity and mRNA was directly isolated. Mouse BMdMs were obtained from the following mice: ABCA1 fl/fl in a C57/BL6 background. Briefly, mice were first sacrificed by CO2 asphyxiation followed by cervical dislocation. After sacrificing the mouse the legs were amputated and the excess muscle tissue was removed so as to completely expose the femur and tibia, which were cleaned carefully. These samples were left in sterile PBS for the duration of the procedure. The cavity bones were then flushed with 10 ml of PBS using 26G needle. The obtained cells were then counted (usually 100-150 million cells per mouse) and centrifuged for 5 min at 2600 rpm. Hematopoietic cells can be separated by plastic adhesion; therefore the cells were incubated in petri dishes containing DMEM culture media and supplemented with 10% FBS and 1% antibiotics). Non-adherent progenitor cells were then collected after 2 hours of incubation in culture media and then seeded at a concentration of 4 million cells/ml in fresh culture media, supplemented with L-cell conditioned media containing macrophage colony stimulating factor (M-CSF) at a concentration of 20%. Approximately after 7-10 days of plating the cells become fully differentiated into macrophages and were ready for subsequent experiments. After treatment the culture supernatants, proteins, and total RNA were collected for analysis. […]
as §1
The lungs of mice (-10 mg) were homogenized in 1 ml of Radioimmunoprecipitation assay (RIPA) buffer, and centrifuged at 14,000 g for 10 min. The protein concentration of each sample was measured using a Bradford reagent. The required amount of each sample was then used for western blot analysis, so that the concentration was equal for all samples. Proteins were first separated on the basis of molecular weight via sodium dodecyl sulphate polyacrylamide gel electrophoresis (SDS-PAGE). The same gel was then transferred onto a nitro cellulose membrane with the help of electric current (or electroblotting) that transfers the protein from polyacrylamide gel to the membrane. This membrane was then incubated in the solution containing primary antibodies, specific for the proteins of interest, ABCA1 and ABCG1, followed by the use of a secondary antibody that allowed the detection of protein by chemiluminescent. […]
Background: A western blot detects proteins with antibodies after separation by electrophoresis.

Setting [4] is: 25 mg/kg IP, 10 days smoke exposure, Luminex.
Setting [5] is: 25 mg/kg IP, 10 days smoke exposure, listed as LXR agonist.

On to `O=S(=O)(c1ccccc1)N(CC(F)(F)F)c1ccc(C(O)(C(F)(F)F)C(F)(F)F)cc1` [T0901317, N-(2,2,2-trifluoroethyl)-N-[4-[2,2,2-trifluoro-1-hydroxy-1-(trifluoromethyl)ethyl]phenyl]-benzenesulfonamide], for which the “level of ABCA1 in BAL (alveolar macrophages)” value in assay [1] (25 mg/kg IP daily, last 4 days of 10 day smoke exposure, listed as LXR agonist) is “re-expression; also recorded: successfully increased”. Further, the “pulmonary inflammation: total inflammatory cell counts in BAL” value in assay [1] (25 mg/kg IP, 10 days smoke exposure) is “resolve”. In assay [1] (setting [4]), the “cigarette smoke induced TNFα protein expression in the BAL” value is on record as “abrogated”; the “smoke induced increase in IL-1β, IL-17, IFNγ and MCP-1 in the lung tissue” value is reported as “inhibited”. Also, in assay [1] (setting [5]), the “cigarette smoke induced MMP-9 expression and activity in the BAL” value is “inhibition; also recorded: inhibited”; the “mRNA levels of TNFα in BAL alveolar macrophages” value was “inhibition; also recorded: decreased”; the “pulmonary inflammation: total inflammatory cell counts in BAL” value is reported as “significantly blocked; also recorded: decreased”. For the same molecule, the “pulmonary inflammation (total cell counts in BAL)” value in assay [2] was “did not resolve”. In assay [3] (5% CSE, LXR agonist 3 μM), the “Expression of ABCA1 and ABCG1 (mRNA and protein)” value is reported as “maintained at baseline levels”; the “cigarette smoke induced mRNA expression of TLR4/Myd88” value is given as “inhibited”. Also, in assay [3] (5% CSE, LXR agonist 3 μM, Western blot), the “cigarette smoke induced phosphorylation of JNK and ERK” value is given as “inhibited”. The “Expression of ABCA1 and ABCG1 (mRNA and protein)” value in assay [3] (5% CSE, LXR agonist 3 μM, listed as LXR agonist) was “re-established”. Moreover, in assay [3] (ABCA1 WT macrophages, 5% CSE, LXR agonist 3 μM), the “CSE induced upregulation of IL-1β and TNFα and downregulation of IL-10 (mRNA)” value is given as “reversed back to baseline”. In addition, the “mRNA and activity of MMP-9” value in assay [3] (ABCA1 WT macrophages, 5% CSE, LXR agonist 3 μM, gelatin zymography) is reported as “blocked; also recorded: reduced”. Further, the “cigarette smoke-induced pro-inflammatory cytokines and MMP expression and activity” value in assay [3] (mouse macrophages treated with CSE) is listed as “blocked”. The “MMP-9 activity (zymography) and expression, MMP-13 expression and TNFα expression” value in assay [3] (smoke-induced, macrophages) was “decrease”.
